Key:
Format in all cases: in vivo
[1] = tested on: Galium (catchweed bedstraw, Galium aparine); test: Test A postemergence
Summary of the method: (§1)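 Each rating is a visual injury score from 0 to 100 given about 10 d after treatment, judged against untreated controls kept alongside in the greenhouse. In loam soil–sand blend, seeds got a preemergence directed soil spray, while postemergence plants were 2 to 10 cm tall at spraying.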

[2] = tested on: ragweed (common ragweed, Ambrosia elatior); test: Test A postemergence
Summary of the method: as §1

[3] = tested on: wheat (Triticum aestivum); test: Test A postemergence
Summary of the method: as §1

[4] = tested on: ryegrass, Italian (Italian ryegrass, Lolium multiflorum); test: Test A postemergence
Summary of the method: as §1

corn (Zea mays) = test: Test A postemergence
Summary of the method: as §1

[5] = tested on: blackgrass (Alopecurus myosuroides); test: Test A postemergence; details: for Blackgrass plant response rating: visual injury rating on 0 to 100 scale (0 no effect, 100 complete control), approx. 10 d
Summary of the method: as §1

[6] = tested on: giant foxtail (Setaria faberii); test: Test A postemergence
Summary of the method: as §1

Kochia (Kochia scoparia) [7] = test: Test A postemergence
Summary of the method: as §1

[8] = tested on: barnyardgrass (Echinochloa crus-galli); test: Test A postemergence; details: for Barnyardgrass plant response rating: visual injury rating on 0 to 100 scale (0 no effect, 100 complete control), approx. 10 d
Summary of the method: as §1

[9] = tested on: pigweed (Amaranthus retroflexus); test: Test A postemergence
Summary of the method: as §1

rice (Oryra sativa) = test: Test B flooded paddy test; details: Flood, 250 g ai/ha; 0 to 100 scale where 0 is no effect and 100 is complete control; 13 to 15 d
Summary of the method: (§2)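 Rating scale 0–100 (visual, vs untreated controls) after a 13–15 d greenhouse period; application to the flood layer, 3 cm above soil and maintained; plants at 2-leaf stage when treated.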

[10] = tested on: ducksalad (Heteranthera limosa); test: Test B flooded paddy test; details: Flood, 250 g ai/ha; 0 to 100 scale where 0 is no effect and 100 is complete control; 13 to 15 d
Summary of the method: as §2

[11] = tested on: sedge, umbrella (small-flower umbrella sedge, Cyperus difformis); test: Test B flooded paddy test; details: Flood, 250 g ai/ha; 0 to 100 scale where 0 is no effect and 100 is complete control; 13 to 15 d
Summary of the method: as §2

[12] = tested on: barnyardgrass (Echinochloa crus-galli); test: Test B flooded paddy test; details: Flood, 250 g ai/ha; 0 to 100 scale where 0 is no effect and 100 is complete control; 13 to 15 d
Summary of the method: as §2

[13] = tested on: ragweed (common ragweed, Ambrosia elatior); test: Test A preemergence; details: Preemergence; for Plant response rating, Ragweed: 125 g ai/ha, visual injury after approximately 10 d, 0 to 100 scale where 0 is no effect and 100 is complete control; for Ragweed plant response rating (0 to 100 scale, 0 is no effect, 100 is complete control): 500 g ai/ha, visual injury approx. 10 d
Summary of the method: as §1

[14] = tested on: ryegrass, Italian (Italian ryegrass, Lolium multiflorum); test: Test A preemergence; details: Preemergence; for Plant response rating, Ryegrass, Italian: 125 g ai/ha, visual injury after approximately 10 d, 0 to 100 scale where 0 is no effect and 100 is complete control; for Ryegrass, Italian plant response rating (0 to 100 scale, 0 is no effect, 100 is complete control): 500 g ai/ha, visual injury approx. 10 d
Summary of the method: as §1

[15] = tested on: giant foxtail (Setaria faberii); test: Test A preemergence; details: Preemergence; for Plant response rating, Foxtail, Giant: 125 g ai/ha, visual injury after approximately 10 d, 0 to 100 scale where 0 is no effect and 100 is complete control; for Foxtail, Giant plant response rating (0 to 100 scale, 0 is no effect, 100 is complete control): 500 g ai/ha, visual injury approx. 10 d
Summary of the method: as §1

Kochia (Kochia scoparia) [16] = test: Test A preemergence; details: Preemergence; for Plant response rating, Kochia: 125 g ai/ha, visual injury after approximately 10 d, 0 to 100 scale where 0 is no effect and 100 is complete control; for Kochia plant response rating (0 to 100 scale, 0 is no effect, 100 is complete control): 500 g ai/ha, visual injury approx. 10 d
Summary of the method: as §1

[17] = tested on: barnyardgrass (Echinochloa crus-galli); test: Test A preemergence; details: Preemergence; for Plant response rating, Barnyardgrass: 125 g ai/ha, visual injury after approximately 10 d, 0 to 100 scale where 0 is no effect and 100 is complete control; for Barnyardgrass plant response rating (0 to 100 scale, 0 is no effect, 100 is complete control): 500 g ai/ha, visual injury approx. 10 d
Summary of the method: as §1

[18] = tested on: pigweed (Amaranthus retroflexus); test: Test A preemergence; details: Preemergence; for Plant response rating, Pigweed: 125 g ai/ha, visual injury after approximately 10 d, 0 to 100 scale where 0 is no effect and 100 is complete control; for Pigweed plant response rating (0 to 100 scale, 0 is no effect, 100 is complete control): 500 g ai/ha, visual injury approx. 10 d
[19] = 125 g ai/ha, postemergence, visual injury rating on 0 to 100 scale (0 no effect, 100 complete control), approx. 10 d
[20] = Postemergence, 500 g ai/ha, 0 to 100 scale where 0 is no effect and 100 is complete control
[21] = 125 g ai/ha, postemergence, visual rating after approx. 10 d, 0 to 100 scale (0 no effect, 100 complete control)

Row | SMILES | Plant response rating, Galium [1, 20] | Plant response rating, Ragweed [2, 20] | Plant response rating, Wheat [3, 20] | Plant response rating, Ryegrass, Italian [4, 20] | Plant response rating, Corn (corn (Zea mays); [20]) | Plant response rating, Blackgrass [5, 20] | Plant response rating, Foxtail, Giant [6, 20] | Plant response rating, Kochia (Kochia (Kochia scoparia) [7]; [20]) | Plant response rating, Barnyardgrass [8, 20] | Plant response rating, Pigweed [9, 20] | Plant response rating, Rice (rice (Oryra sativa)) | Plant response rating, Ducksalad [10] | Plant response rating, Sedge, Umbrella [11] | Plant response rating, Barnyardgrass [12] | Plant response rating, Ragweed [13] | Plant response rating, Ryegrass, Italian [14] | Ryegrass, Italian plant response rating (0 to 100 scale, 0 is no effect, 100 is complete control) [14] | Plant response rating, Foxtail, Giant [15] | Foxtail, Giant plant response rating (0 to 100 scale, 0 is no effect, 100 is complete control) [15] | Plant response rating, Kochia (Kochia (Kochia scoparia) [16]) | further results
1 | CC(=O)N1CC(c2cccc(C(F)(F)F)c2)C(C(=O)Nc2ccccc2F)C1=O (centres unmarked) [Compound 503] | 70 | 30 | 40 | 70 | 80 | 70 | 90 | 0 | 90 | 0 | 0 | 85 | 0 | 45 | 0 | 0 | 50 | 90 | 90 | 0 | Galium plant response rating [1, 19]: 30; Ragweed plant response rating [2, 19]: 30; Wheat plant response rating [3, 19]: 0; Ryegrass, Italian plant response rating [4, 19]: 40; Corn plant response rating (corn (Zea mays); [19]): 20; Blackgrass plant response rating ([5]; 125 g ai/ha, postemergence): 30; Foxtail, Giant plant response rating [6, 19]: 90; Kochia plant response rating (Kochia (Kochia scoparia) [7]; [19]): 0; Barnyardgrass plant response rating ([8]; 125 g ai/ha, postemergence): 90; Pigweed plant response rating [9, 19]: 0; Ragweed plant response rating (0 to 100 scale, 0 is no effect, 100 is complete control) [13]: 0; Kochia plant response rating (0 to 100 scale, 0 is no effect, 100 is complete control) (Kochia (Kochia scoparia) [16]): 20; Plant response rating, Barnyardgrass [17]: 90; Barnyardgrass plant response rating (0 to 100 scale, 0 is no effect, 100 is complete control) [17]: 90; Plant response rating, Pigweed [18]: 0; Pigweed plant response rating (0 to 100 scale, 0 is no effect, 100 is complete control) [18]: 40
2 | CN1CC(c2cccc(OC(F)(F)C(F)F)c2)C(C(=O)Nc2ccccc2F)C1=O (centres unmarked) [Compound 539] | 70 | 50 | 70 | 70 | 90 | 80 | 90 | 70 | 90 | 50 | 0 | 95 | 0 | 65 | 0 | 30 | 50 | 90 | 90 | 60 | Plant response rating, Galium [1, 21]: 70; Plant response rating, Ragweed [2, 21]: 0; Plant response rating, Wheat [3, 21]: 50; Plant response rating, Ryegrass, Italian [4, 21]: 0; Plant response rating, Corn (corn (Zea mays); [21]): 70; Blackgrass plant response rating ([5]; 125 g ai/ha, postemergence): 50; Plant response rating, Foxtail, Giant [6, 21]: 90; Plant response rating, Kochia (Kochia (Kochia scoparia) [7]; [21]): 40; Barnyardgrass plant response rating ([8]; 125 g ai/ha, postemergence): 90; Plant response rating, Pigweed [9, 21]: 20; Ragweed plant response rating (0 to 100 scale, 0 is no effect, 100 is complete control) [13]: 70; Kochia plant response rating (0 to 100 scale, 0 is no effect, 100 is complete control) (Kochia (Kochia scoparia) [16]): 70; Plant response rating, Barnyardgrass [17]: 90; Barnyardgrass plant response rating (0 to 100 scale, 0 is no effect, 100 is complete control) [17]: 90; Plant response rating, Pigweed [18]: 40; Pigweed plant response rating (0 to 100 scale, 0 is no effect, 100 is complete control) [18]: 80
3 | CC(C)Oc1cccc(C2CNC(=O)C2C(=O)Nc2cccc(F)c2F)c1 (centres unmarked) [Compound 553] | 60 | 40 | 60 | 70 | 90 | 60 | 90 | 50 | 90 | 30 | 10 | 100 | 0 | 65 | 40 | 70 | 70 | 90 | 90 | 60 | Plant response rating, Galium [1, 21]: 60; Plant response rating, Ragweed [2, 21]: 30; Plant response rating, Wheat [3, 21]: 40; Plant response rating, Ryegrass, Italian [4, 21]: 60; Plant response rating, Corn (corn (Zea mays); [21]): 80; Plant response rating, Blackgrass [5, 21]: 50; Plant response rating, Foxtail, Giant [6, 21]: 70; Plant response rating, Kochia (Kochia (Kochia scoparia) [7]; [21]): 30; Plant response rating, Barnyardgrass [8, 21]: 90; Plant response rating, Pigweed [9, 21]: 20; Kochia plant response rating (0 to 100 scale, 0 is no effect, 100 is complete control) (Kochia (Kochia scoparia) [16]): 80; Plant response rating, Barnyardgrass [17]: 90; Barnyardgrass plant response rating (0 to 100 scale, 0 is no effect, 100 is complete control) [17]: 90; Plant response rating, Pigweed [18]: 30; Pigweed plant response rating (0 to 100 scale, 0 is no effect, 100 is complete control) [18]: 40
